Usually IC50 stands for the midpoint of a concentration-inhibition curve.

Human DGAT2 (hDGAT2), sequence (Q96PD7 whole entry): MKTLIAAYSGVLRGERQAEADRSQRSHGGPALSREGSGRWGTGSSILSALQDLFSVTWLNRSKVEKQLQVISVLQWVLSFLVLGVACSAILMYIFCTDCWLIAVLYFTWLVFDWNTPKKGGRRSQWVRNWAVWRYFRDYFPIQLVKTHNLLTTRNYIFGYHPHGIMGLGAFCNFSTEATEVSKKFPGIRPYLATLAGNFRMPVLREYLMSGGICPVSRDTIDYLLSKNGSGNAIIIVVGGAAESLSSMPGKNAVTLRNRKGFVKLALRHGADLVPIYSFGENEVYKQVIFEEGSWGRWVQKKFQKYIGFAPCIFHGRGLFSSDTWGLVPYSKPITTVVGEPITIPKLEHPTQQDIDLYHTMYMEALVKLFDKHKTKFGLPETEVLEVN
DGAT2, sequence (Q96PD7 whole entry): as above

One experiment addresses DGAT2 (Homo sapiens (Human), UniProt Q96PD7). As to the kind of experiment: IC50 determination for DGAT2 inhibitors in human hepatocytes ([1,3-14C]-glycerol incorporation into lipids). The experiment is classed as cell-based. To be noted: average IC50; cryopreserved human hepatocytes, selective DGAT1 inhibitor (3 μM) in all wells, 3 hour incubation with [1,3-14C]-glycerol; read-out: IC50 (nM) in primary human hepatocyte. On the procedure:
For evaluation of the effects of DGAT2 inhibitors in a cell-based setting, cryopreserved human hepatocytes (Lot QOC, Celsis, Chicago, Ill.) were thawed and plated onto type I collagen-coated plates according to the manufacturer's instructions. After 24 hours overnight recovery period, the cells were overlayed with media containing 250 μg/ml Matrigel (BD Biosciences, San Jose, Calif.). The following day, media was aspirated and replaced with serum-free Williams Media E (Life Technologies, Grand Island, N.Y.) containing 400 μM sodium dodecanoate (Sigma-Aldrich, St. Louis, Mo.). Forty minutes later, DGAT2 inhibitors (prepared as 100× stocks in 25% DMSO, 75% Williams' Media E) were added to the desired final concentration. […] After a 20 minute preincubation, 0.2 μCi [1,3-^14C]-glycerol (American Radio Chemicals, St. Louis, Mo.) was added to each well and mixed by gentle pipetting prior to a 3 hour incubation. At this point, media was aspirated and the cells were lysed in isopropyl alcohol:tetrahydrofuran (9:1) prior to centrifugation at 3000 rpm for 5 minutes. Radiolabeled lipids were resolved using a 2-solvent system by thin layer chromatography using standard technique (solvent 1 contained ethyl acetate: isopropyl alcohol: chloroform:methanol:0.25% potassium chloride in water (100:100:100:40.2:36.1, v/v/v/v) and solvent 2 contained hexane: diethyl ether: acetic acid (70:27:3, v/v/v)). After separation, radiolabeled lipids were visualized using a Molecular Dynamics' PhosphorImager system. The half maximal inhibitory concentrations (IC50 values) were determined using Graph Pad Prism (GraphPad Software, Inc., La Jolla, Calif.).
Consider `CC(c1nc2ccc(N3CCC[C@@H](C(=O)N4CCCC4)C3)nc2[nH]1)n1cccn1` (stereo partly drawn) [Example 58, (R)-(1-(2-(1-(1H-Pyrazol-1-yl)ethyl)-3H-imidazo[4,5-b]pyridin-5-yl)piperidin-3-yl)(pyrrolidin-1-yl)methanone], for which the concentration for half-maximal inhibition (IC50) was determined as 86.8 nM. Same read-out and setting: in the case of `O=C([C@@H]1CCCN(c2ccc3nc(C4(n5cc(F)cn5)CC4)[nH]c3n2)C1)N1CCCC1` [Example 73, (R)-(1-(2-(1-(4-Fluoro-1H-pyrazol-1-yl)cyclopropyl)-3H-imidazo[4,5-b]pyridin-5-yl)piperidin-3-yl)(pyrrolidin-1-yl)methanone] it was 7.9 nM.

The target in a further experiment is Human DGAT2 (hDGAT2) (Homo sapiens (Human), UniProt Q96PD7). As to the kind of experiment: In vitro DGAT2 assay, IC50 determination with hDGAT2 membrane fraction. To be noted: geometric mean; background for complete inhibition of DGAT2 obtained with 50 μM (1R,2R)-2-({3′-Fluoro-4′-[(6-fluoro-1,3-benzothiazol-2-yl)amino]-1,1′-biphenyl-4-yl}carbonyl)cyclopentanecarboxylic acid; read-out: DGAT2 IC50. The class given is biochemical. In a few lines:
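CHAPS-solubilized membrane fraction of FLAG-tagged hDGAT2 from baculovirus-infected SF9 cells (0.01 mg/mL) in 100 mM Hepes-NaOH pH 7.4, 20 mM MgCl2, 200 nM methyl arachidonyl fluorophosphonate; compounds pre-incubated 20 min with 0.04% BSA. Reaction 40 min at room temperature, stopped with H3PO4. [^14C]tridecanoylglycerol in organic phase counted; 11-point geometric mean IC50.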
As for `CC(c1nc2ccc(N3CCC[C@@H](C(=O)N4CCCC4)C3)nc2[nH]1)n1cccn1` (stereo partly drawn) [Example 58, (R)-(1-(2-(1-(1H-Pyrazol-1-yl)ethyl)-3H-imidazo[4,5-b]pyridin-5-yl)piperidin-3-yl)(pyrrolidin-1-yl)methanone], the IC50 is 363 nM. `O=C([C@@H]1CCCN(c2ccc3nc(C4(n5cc(F)cn5)CC4)[nH]c3n2)C1)N1CCCC1` [Example 73, (R)-(1-(2-(1-(4-Fluoro-1H-pyrazol-1-yl)cyclopropyl)-3H-imidazo[4,5-b]pyridin-5-yl)piperidin-3-yl)(pyrrolidin-1-yl)methanone]: the IC50 was found to be 96.9 nM. The same measure, in the same setting: with `O=C([C@@H]1CCCN(c2ccc3nc(C4(n5cc(Cl)cn5)CC4)[nH]c3n2)C1)N1CC(F)(F)C1` [Example 200, (R)-(1-(2-(1-(4-Chloro-1H-pyrazol-1-yl)cyclopropyl)-3H-imidazo[4,5-b]pyridin-5-yl)piperidin-3-yl)(3,3-difluoroazetidin-1-yl)methanone] the figure was 74.2 nM; with `C[C@@H]1CCCN1C(=O)[C@@H]1CCCN(c2ccc3nc(C4(n5cc(Cl)cn5)CC4)[nH]c3n2)C1` [Example 201, ((R)-1-(2-(1-(4-Chloro-1H-pyrazol-1-yl)cyclopropyl)-3H-imidazo[4,5-b]pyridin-5-yl)piperidin-3-yl)((R)-2-methylpyrrolidin-1-yl)methanone], 91 nM. On the same count and under the same terms, with `C[C@H]1CCCN1C(=O)[C@@H]1CCCN(c2ccc3nc(C4(n5cc(Cl)cn5)CC4)[nH]c3n2)C1` [Example 202, ((R)-1-(2-(1-(4-Chloro-1H-pyrazol-1-yl)cyclopropyl)-3H-imidazo[4,5-b]pyridin-5-yl)piperidin-3-yl)((S)-2-methylpyrrolidin-1-yl)methanone] the figure was 321 nM; with `O=C([C@@H]1CCCN(c2ccc3nc(C4(c5cnccn5)CC4)[nH]c3n2)C1)N1CCCC1` [Example 203, (R)-(1-(2-(1-(Pyrazin-2-yl)cyclopropyl)-3H-imidazo[4,5-b]pyridin-5-yl)piperidin-3-yl)(pyrrolidin-1-yl)methanone], 176 nM; with `O=C([C@@H]1CCCN(c2ccc3nc(C4(c5ncccn5)CC4)[nH]c3n2)C1)N1CCCC1` [Example 204, (R)-(1-(2-(1-(Pyrimidin-2-yl)cyclopropyl)-3H-imidazo[4,5-b]pyridin-5-yl)piperidin-3-yl)(pyrrolidin-1-yl)methanone], 656 nM. Still for that read-out and setting: with `O=C([C@@H]1CCCN(c2ccc3nc(C4(n5cc(Cl)cn5)CC4)[nH]c3n2)C1)N1CCC1` [Example 205, (R)-Azetidin-1-yl(1-(2-(1-(4-chloro-1H-pyrazol-1-yl)cyclopropyl)-3H-imidazo[4,5-b]pyridin-5-yl)piperidin-3-yl)methanone] the figure was 188 nM. On to `O=C([C@@H]1CCCN(c2ccc3nc(C4(n5cc(Cl)cn5)CC4)[nH]c3n2)C1)N1CCOCC1` [Example 206, (R)-(1-(2-(1-(4-Chloro-1H-pyrazol-1-yl)cyclopropyl)-3H-imidazo[4,5-b]pyridin-5-yl)piperidin-3-yl)(morpholino)methanone], for which the IC50 was determined as 246 nM. As to `C[C@@H]1CCN(c2ncc3nc(C4(n5cccn5)CC4)[nH]c3n2)C[C@@H]1C(=O)N1CCCC1` [Example 207, ((3R,4R)-1-(8-(1-(1H-Pyrazol-1-yl)cyclopropyl)-9H-purin-2-yl)-4-methylpiperidin-3-yl)(pyrrolidin-1-yl)methanone], the IC50 was found to be 702 nM. Regarding `O=C([C@@H]1CCCN(c2ncc3nc(C4(n5cccn5)CC4)[nH]c3n2)C1)N1CCCC1` [Example 210, (R)-(1-(8-(1-(1H-Pyrazol-1-yl)cyclopropyl)-9H-purin-2-yl)piperidin-3-yl)(pyrrolidin-1-yl)methanone], the concentration for half-maximal inhibition (IC50) is 342 nM. On the same count and under the same terms, in the case of `O=C(Nc1ccc(C(F)(F)F)nc1)c1nc2ccc(N3CCC[C@@H](C(=O)N4CCCC4)C3)nc2[nH]1` [Example 211, (R)-5-(3-(Pyrrolidine-1-carbonyl)piperidin-1-yl)-N-(6-(trifluoromethyl)pyridin-3-yl)-3H-imidazo[4,5-b]pyridine-2-carboxamide] it was 845 nM; in that of `O=C([C@@H]1CCCN(c2ccc3nc(C4(n5cc(Cl)cn5)CC4)[nH]c3n2)C1)N1CC=CC1` [Example 212, (R)-(1-(2-(1-(4-Chloro-1H-pyrazol-1-yl)cyclopropyl)-3H-imidazo[4,5-b]pyridin-5-yl)piperidin-3-yl)(2,5-dihydro-1H-pyrrol-1-yl)methanone], 18.9 nM; in that of `O=C([C@H]1CN(c2ncc3nc(C4(n5cc(Cl)cn5)CC4)[nH]c3n2)CCO1)N1CCCC1` [Example 213, (R)-(4-(8-(1-(4-Chloro-1H-pyrazol-1-yl)cyclopropyl)-9H-purin-2-yl)morpholin-2-yl)(pyrrolidin-1-yl)methanone], 161 nM. The same measure, in the same setting: with `O=C([C@@H]1CCCN(c2ccc3nc(C4(n5nccn5)CC4)[nH]c3n2)C1)N1CCCC1` [Example 214, (R)-(1-(2-(1-(2H-1,2,3-Triazol-2-yl)cyclopropyl)-3H-imidazo[4,5-b]pyridin-5-yl)piperidin-3-yl)(pyrrolidin-1-yl)methanone] the figure was 396 nM. The same measure, in the same setting: with `O=C([C@@H]1CCCN(c2ccc3nc(C4(n5ccnc5)CC4)[nH]c3n2)C1)N1CCCC1` [Example 215, (R)-(1-(2-(1-(1H-Imidazol-1-yl)cyclopropyl)-3H-imidazo[4,5-b]pyridin-5-yl)piperidin-3-yl)(pyrrolidin-1-yl)methanone] the figure was 483 nM; with `C[C@H]1CC[C@@H](C(=O)N2CCCC2)CN1c1ccc2nc(C3(n4cc(Cl)cn4)CC3)[nH]c2n1` [Example 216, ((3R,6S)-1-(2-(1-(4-Chloro-1H-pyrazol-1-yl)cyclopropyl)-3H-imidazo[4,5-b]pyridin-5-yl)-6-methylpiperidin-3-yl)(pyrrolidin-1-yl)methanone], 9200 nM. With `O=C([C@@H]1CCCN(c2ccc3nc(-c4ccnc(C5CC5)n4)[nH]c3n2)C1)N1CCC1` [Example 220, (R)-Azetidin-1-yl(1-(2-(2-cyclopropylpyrimidin-4-yl)-3H-imidazo[4,5-b]pyridin-5-yl)piperidin-3-yl)methanone], the IC50 is 270 nM. With `CN(CC1CC1)C(=O)[C@@H]1CCCN(c2ccc3nc(-c4ccnc(C5CC5)n4)[nH]c3n2)C1` [Example 221, (R)—N-(Cyclopropylmethyl)-1-(2-(2-cyclopropylpyrimidin-4-yl)-3H-imidazo[4,5-b]pyridin-5-yl)-N-methylpiperidine-3-carboxamide], the IC50 was determined as 290 nM. The same measure, in the same setting: in the case of `O=C([C@@H]1CCCN(c2ccc3nc(C4(c5cccnn5)CC4)[nH]c3n2)C1)N1CCCC1` [Example 222, (R)-(1-(2-(1-(Pyridazin-3-yl)cyclopropyl)-3H-imidazo[4,5-b]pyridin-5-yl)piperidin-3-yl)(pyrrolidin-1-yl)methanone] it was 531 nM; in that of `Cn1ncnc1C1(c2nc3ccc(N4CCC[C@@H](C(=O)N5CCCC5)C4)nc3[nH]2)CC1` [Example 223, (R)-(1-(2-(1-(1-Methyl-1H-1,2,4-triazol-5-yl)cyclopropyl)-3H-imidazo[4,5-b]pyridin-5-yl)piperidin-3-yl)(pyrrolidin-1-yl)methanone], 1370 nM.

Still in this experiment, the particulars now being: geometric mean; background for complete inhibition of DGAT2 obtained with Example 196-A instead of the cyclopentanecarboxylic acid reference; read-out: DGAT2 IC50 (nM), values in the parentheses.
For the compound `O=C([C@@H]1CCCN(c2ccc3nc(C4(n5cc(F)cn5)CC4)[nH]c3n2)C1)N1CCCC1` [Example 73, (R)-(1-(2-(1-(4-Fluoro-1H-pyrazol-1-yl)cyclopropyl)-3H-imidazo[4,5-b]pyridin-5-yl)piperidin-3-yl)(pyrrolidin-1-yl)methanone], the IC50 was found to be 85 nM.

The same experiment, now with this note: read-out: DGAT2 IC50.
On to `C[C@H]1CCN(c2ncc3nc(C4(n5cccn5)CC4)[nH]c3n2)C[C@H]1C(=O)N1CCCC1` [Example 208, ((3S,4S)-1-(8-(1-(1H-pyrazol-1-yl)cyclopropyl)-9H-purin-2-yl)-4-methylpiperidin-3-yl)(pyrrolidin-1-yl)methanone], for which the IC50 stood at 37400 nM.

With `C[C@@H]1CC[C@H](C(=O)N2CCCC2)CN1c1ccc2nc(C3(n4cc(Cl)cn4)CC3)[nH]c2n1` [Example 217, ((3S,6R)-1-(2-(1-(4-chloro-1H-pyrazol-1-yl)cyclopropyl)-3H-imidazo[4,5-b]pyridin-5-yl)-6-methylpiperidin-3-yl)(pyrrolidin-1-yl)methanone], the IC50 amounted to 131 nM. For “[(R)-1-{2-[1-(4-Chloro-1H-pyrazol-1-yl)cyclopropyl]-3H-imidazo[4,5-b]pyridin-5-yl}(2,2,6,6-^2H4)piperidin-3-yl](pyrrolidin-1-yl)methanone [Example 190]”, the 50% inhibitory concentration (IC50) came out at 35.9 nM.
